Reference: publication PMC8038991, “R-catcher, a potent molecular tool to unveil the arginylome” (Cellular and Molecular Life Sciences: CMLS, 2021)
“Also recorded” adds a separate entry of the source.

How the values were obtained:
[1] = system: R-catcher; test: R-catcher pulldown of putative arginylated ER proteins, HeLa; assay type: binding, human; settings: 5 µM MG132 plus 100 nM TG, RA competition, Fig. 6a
Procedure: For small-scale R-catcher pull-down assays, 300 µg of purified R-catcher was conjugated with 120 µl of Strep-Tactin sepharose resin by incubating overnight at 4 °C. To test R-catcher’s ability to capture known arginylated proteins, such as R-BiP, R-PDI, R-nsP4 and R-RGS4, plasmids encoding Ub-X-(BiP, PDI and nsP4) or MX-RGS4 (X = Arg or Val) were transiently transfected into HEK293 cells. After 24 h, cells were treated with 10 µM MG132 and 100 nM thapsigargin for another 24 h. Cells were harvested and lysed in hypotonic buffer and 300 µg total protein was incubate with 25 µl R-catcher-sepharose resin in binding buffer (20 mM HEPES pH 7.9, 0.05% Tween 20, 10% glycerol, 0.2 M KCl, protease inhibitor and phosphatase inhibitor) for 3 h with gentle rotation at 4 °C. After three washes with binding buffer, bound proteins were dissociated with 2 × SDS sample buffer and boiling at 100 °C and subjected to immunoblotting using anti-myc or flag antibodies.
Plasmids encoding the proteins were transiently transfected to HeLa cells for 24 h and stimulated with 5 µM MG132 plus 100 nM TG for another 24 h. Cell lysates were incubated with R-catcher immobilized on tactin beads for 3 h. After wash, bound proteins were eluted with 2 × SDS sample buffer followed by boiling at 100 °C for 10 min and visualized by western blot analysis. b R-catcher pulldown assays to validate ATE1-dependent arginylation of […]1, PRDX4, FBLN1 and CLUS. Plasmids encoding […]1, PRDX4, FBLN1 and CLUS were transiently transfected into + / + and ATE1^−/− MEFs for 24 h and stimulated with 5 µM MG132 plus 100 nM TG for another 9 h. Cell lysates were subjected to R-catcher pulldown, and bound proteins were detected by western blot analysis. c R-catcher pull-down assays to evaluate if the arginylation of FBNL1, SERPINH1, CLUS and PRDX4 is induced in response to MG132 plus thapsigargin. d X-peptide pulldown assays to confirm no interaction of R-catcher with Nt-Ala19 of SERPINH1 peptides and Nt-Trp38 of PRDX4 peptides. X-peptides where X is A19 (SignalP predicted P1’ site), E20 (next possible P1’ site predicted by PrediSi) or R19 (Arginylated form of Glu) for SERPINH1 and W38 (SignalP predicted P1’ site), E39 (next possible P1’ site predicted by PrediSi) or R38 (Arginylated form) for PRDX4. Biotinylated X-peptides immobilized on streptavidin agarose beads were incubated with affinity-purified GST-ZZ ([…]). Bound GST-ZZ (N132D) was detected by immunoblotting. e Identification of arginylated sites employing mutational analysis. Predicted P1’ sites of SERPINH1, PRDX4, CLUS and FBLN1 were substituted to Gly, and the inhibitory effect of the mutation on binding with R-catcher was examined by performing R-catcher pulldown assays

[2] = system: R-catcher; test: R-catcher pulldown in +/+ and ATE1-/- MEFs; assay type: binding; settings: +/+ versus ATE1-/- MEFs, MG132 plus TG, 9 h, Fig. 6b
Procedure: (§1) For small-scale R-catcher pull-down assays, 300 µg of purified R-catcher was conjugated with 120 µl of Strep-Tactin sepharose resin by incubating overnight at 4 °C. To test R-catcher’s ability to capture known arginylated proteins, such as R-BiP, R-PDI, R-nsP4 and R-RGS4, plasmids encoding Ub-X-(BiP, PDI and nsP4) or MX-RGS4 (X = Arg or Val) were transiently transfected into HEK293 cells. After 24 h, cells were treated with 10 µM MG132 and 100 nM thapsigargin for another 24 h. […]
(§2) Plasmids encoding the proteins were transiently transfected to HeLa cells for 24 h and stimulated with 5 µM MG132 plus 100 nM TG for another 24 h. […] Cell lysates were subjected to R-catcher pulldown, and bound proteins were detected by western blot analysis. c R-catcher pull-down assays to evaluate if the arginylation of FBNL1, SERPINH1, CLUS and PRDX4 is induced in response to MG132 plus thapsigargin. d X-peptide pulldown assays to confirm no interaction of R-catcher with Nt-Ala19 of SERPINH1 peptides and Nt-Trp38 of PRDX4 peptides. […] Bound GST-ZZ (N132D) was detected by immunoblotting. e Identification of arginylated sites employing mutational analysis. […]

[3] = system: R-catcher; test: R-catcher pulldown of P1' site Gly mutants; assay type: binding, human; settings: E20 SERPINH1, E30 (printed) PRDX4, D23 CLUS, D30 FBLN1 to Gly, Fig. 6e
Procedure: as §1, §2

[4] = Identification of arginylation sites, GelNrich and in-gel digestion LC-MS/MS
Excerpt: Upon separation of the immunoprecipitated protein by SDS-PAGE and staining with Coomassie Blue, the corresponding protein band was excised, half of which was subjected to GelNrich and the other half to conventional in-gel digestion GelNrich is an N-terminal peptide enrichment method based on in-gel digestion. The method includes in-gel protein level labeling of primary amines using d6-acetic anhydride and post-digestion negative selection of labeled N-terminal peptide(s) using N-hydroxysuccinimide activated agarose beads. Peptides recovered from GelNrich or in-gel digestion were dried in a vacuum evaporator and reconstituted in 0.1% formic acid. An aliquot was injected from a cooled (10 °C) auto-sampler into a reversed-phase EASY-Spray column (25 cm × 75 μm, Thermo Fisher Scientific) on an Eksigent nanoLC-ultra 1D plus system (Danaher Corporation) at a flow rate of 300 nL/min. Prior to use, the column was equilibrated with 96% buffer A (0.1% formic acid in water) and 4% buffer B (0.1% formic acid in acetonitrile). The peptides were eluted with a linear gradient from 4 to 35% buffer B over 60 min and 35–80% buffer B over 2 min followed by an organic wash and aqueous re-equilibration at a flow rate of 300 nL/min with a total run time of 96 min. The HPLC system was coupled to a Q-Exactive mass spectrometer (Thermo Fisher Scientific) operated in a data-dependent acquisition (DDA) mode. […]

[5] = system: GST-ZZ122-175^N132D; test: GST-ZZ122-175^N132D pulldown from HeLa lysates (MG132 plus TG); assay type: binding, human; settings: HeLa lysate, immunoblot
Excerpt: Using these lysates and purified GST tagged ZZ122-175^N132D (Supplementary Fig. 4A) immobilized on glutathione resin, we performed pulldown assays. […] In addition to pulling down R-BiP and R-CRT, GST-ZZ122-175^N132D was able to capture polyubiquitinated proteins, which were also disrupted by the D129A mutation and RA dipeptide competition (Supplementary Fig. 4B). This was expected because arginylated proteins are known to be ubiquitinated by E3 ligases containing a UBR box leading to their proteasomal degradation.
Fig. 4 ZZ122-175 ^N132D is capable of capturing known arginylated proteins in cells. a Western blot analysis to visualize arginylated BiP and CRT. […] N-terminally arginylated BiP and CRT were detected by immunoblotting using anti R-BiP and R-CRT antibodies. b GST pulldown assays to test the ability of wild type (WT) and N132D GST-ZZ in capturing cellular R-BiP and R-CRT. […] Pulled down R-BiP and R-CRT were detected using anti R-BiP and R-CRT antibodies. c Schematic drawing illustrating R-catcher. […] R-catcher bound arginylated proteins were detected by immunoblotting using anti-Myc or Flag antibody. e R-catcher pulldown assay to capture R-BiP and R-CRT induced in HeLa cells stimulated with MG132 plus TG in the absence or presence of 20 mM dipeptides TEXT PRINTED IN THE PICTURE: (C) R-catcher: ~ 9 kDa

| Substance | binding with R-catcher, Nt-Arg dependence [1] | capture by R-catcher, ATE1 dependence [2] | effect of Gly substitution of P1' site on interaction with R-catcher [3] | arginylation detected by mass spectrometry [4] | pulldown by GST-ZZ122-175^N132D [5] |
| --- | --- | --- | --- | --- | --- |
| CLU: clusterin | Nt-Arg-dependent binding with R-catcher | captured by R-catcher in an ATE1-dependent manner | significantly impaired their interaction with R-catcher; also recorded: abolished their binding with R-catcher | arginylation at the D23 residue | – |
| R-BiP: Nt-arginylated BiP | bound R-catcher in an Nt-Arg-dependent manner | – | – | – | efficiently pull down |
